Values quoted from earlier work, collected in patent US20220273698A1, “MEDICINAL AND/OR PHARMACEUTICAL COMPOSITIONS FOR INTRAVESICAL INSTILLATION, PREPARATION AND USE THEREOF” (priority 2019, published 2022).

How the values were obtained:
[1] = oral medicine
[2] = taking PPS over a long time

active agent absorbed [1]: 5%
Substance: pentosan polysulfate sodium [Elmiron]
side effect [2]: pigmentary maculopathy
